Source: patent US5703085A, “Xanthine derivatives” (Kyowa Hakko Kogyo Co., Ltd., priority 1994, dated 1997)
Read-outs that look alike come from different tables or passages of the source.

Assays:
A2 Receptor = biological target: T1, A2 Receptor (Rattus norvegicus, UniProt P30543); assay: Adenosine A2 receptor binding test (inhibition of 3H-CGS 21680 binding); details: rat corpus striatum, 3H-CGS 21680 4.0 nM
T1 construct: from tissue; host or cells: rat corpus striatum (membrane suspension)
Experimental: Adenosine Receptor Antagonistic Activity (Adenosine A2 Receptor Binding Test)
The test was conducted according to the method of Bruns et al. [Mol. Pharmacol., 29, 331 (1986)] with slight modification.
Corpus striatum of a rat was suspended in ice-cooled 50 mM Tris (hydroxymethyl) aminomethane hydrochloride (Tris HCl) buffer (pH 7.7) by using Polytron homogenizer (manufactured by Kinematica Co.). The suspension was centrifuged (50,000×g, 10 minutes), and the precipitate was suspended again in the same amount of 50 mM Tris HCl buffer. The suspension was centrifuged under the same conditions, and the final precipitate was suspended in 50 mM Tris HCl buffer [containing 10 mM magnesium chloride and 0.02 unit/mg tissue of adenosine deaminase (manufactured by Sigma Co.)] to give a tissue concentration of 5 mg (wet weight)/ml.
To 1 ml of the tissue suspension thus prepared were added 50 μl of tritium labeled CGS 21680 {^3 H-2-[p-(2-carboxyethyl) phenethylamino]-5'-(N-ethylcarboxamide)-adenosine: 40 Ci/mmol; manufactured by New England Nuclear Co. [J. Pharmacol. Exp. Ther., 251, 888 (1989)]} (final concentration: 4.0 nM) and 50 μl of a test compound. The resulting mixture was allowed to stand at 25° C. for 120 minutes and then rapidly filtered by suction through a glass fiber filter (GF/C; manufactured by Whatman Co.). The filter was immediately washed three times with 5 ml each of ice-cooled 50 mM Tris HCl buffer, and transferred to a vial, and a scintillator (EX-H; manufactured by Wako Pure Chemical Industries, Ltd.) was added thereto. The radioactivity on the filter was determined with a liquid scintillation counter (manufactured by Packard Instrument Co.).
The inhibition rate of the test compound against the binding of A2 receptors (^3 H-CGS 21680 binding) was calculated by the following equation: [formula] [Notes]B: Amount of the binding in the presence of the test compound.
T: Amount of the total binding.
N: Amount of the nonspecific binding.
Amount of the total binding means the amount of radioactivity of ^3 H-CGS 21680 bound in the absence of the test compound. Amount of the nonspecific binding means the amount of radioactivity of ^3 H-CGS 21680 bound in the presence of 100 μM cyclopentyladenosine (CPA; manufactured by Sigma Co.). Amount of the binding in the presence of the test compound means the amount of radioactivity of ^3 H-CGS 21680 bound in the presence of the test compound at various levels of concentrations.

[1] = Effect on clonidine-induced aggressive behavior; type: in vivo, male ddY mice; details: 2.5 mg/kg, po, clonidine 20 mg/kg ip; for Number of the Biting Attacks (mean ± S.E.M.), Test Compound-Treated Group: 30 min count
Experimental: Effect on Clonidine-Induced Aggressive Behavior
The enhancement effect of the test compounds on the aggressive behavior induced by intraperitoneal administration of clonidine [Eur. J. Pharmacol., 29, 374 (1968)] was investigated.
The experiment was performed using several groups of male ddY mice weighing 20 to 25 g (Japan SLC), each group consisting of two mice. A test compound was suspended in injectable distilled water (manufactured by Otsuka Pharmaceutical Co., Ltd.) after adding Tween 80. Clonidine hydrochloride (manufactured by Sigma Co.) was dissolved in physiological saline solution (manufactured by Otsuka Pharmaceutical Co., Ltd.). The suspension containing the test compound and the suspension containing no test compound (control) were orally administered to the separate groups of the mice (0.1 ml per 10 g of body weight). Sixty minutes after the oral administration of the test compound, clonidine hydrochloride (20 mg/kg) was intraperitoneally administered. The number of biting attacks during the 30 minutes immediately after the clonidine treatment was counted. The effect of the compounds was evaluated by comparing the number of biting attacks of the test compound-administered groups with that of control groups (significance test: Student' t-test).

[2] = Effect on haloperidol-induced catalepsy; type: in vivo, male ddY mice; details: 10 mg/kg po; for Total Score (catalepsy): 1 h after compound; for inhibition in vivo at 10 mg/kg: Mus musculus, 1 h, decrease in total score vs control group, read-out: Remission Rate (%)
Experimental: Effect on Haloperidol-Induced Catalepsy
Parkinson's disease is a clinical syndrome caused by degeneration and cell death of nigrostriatal dopaminergic neurons. Administration of haloperidol (dopamine D1 /D2 antagonist) induces catalepsy resulting from the blockade of postsynaptic dopamine D2 receptors.
The experiment was carried out using several groups of 5-week-old male ddY mice (weighing 22 to 24 g, Japan SLC), each group consisting of 5 or 10 mice. Haloperidol (manufactured by Janssen Pharmaceutica) was suspended in 0.3% CMC and imtraperitoneally administered to each mouse at a dose of 1.0 mg/kg. A test compound was suspended in injectable distilled water (manufactured by Otsuka Pharmaceutical Co., Ltd.) after adding Tween 80 [polyoxyethylene (20) sorbitan monooleate]. L-DOPA (manufactured by Kyowa Hakko Kogyo Co., Ltd.) and benserazide hydrochloride (manufactured by Kyowa Hakko Kogyo Co., Ltd.) were suspended in 0.3% CMC. One hour after the intraperitoneal administration of haloperidol, the suspension containing the test compound or the suspension containing no test compound [injectable distilled water (manufactured by Otsuka Pharmaceutical Co., Ltd.) containing Tween 80; control] were orally administered to the separate groups of the mice (0.1 ml per 10 g of body weight). One hour after the administration of the test compound, the forelimbs of each mouse and subsequently the hindlimbs of the same mouse were placed on a 4.5 cm-high, 1.0 cm-wide bar and catalepsy was estimated. All of the test compounds were orally administered at a dose of 10 mg/kg, and L-DOPA (100 mg/kg) and benserazide (25 mg/kg) were intraperitoneally administered together as a control. The catalepsy score and the standard of judgment are shown below. […]
Score Duration of the category
0: forelimbs less than 5 seconds
hindlimbs less than 5 seconds
1: forelimbs from 5 (inclusive)
to 10 (exclusive) seconds
2: forelimbs 10 seconds or more
3: (1) forelimbs from 5 (inclusive)
hindlimbs from 5 (inclusive)
or (2) forelimbs less than 5 seconds
hindlimbs 5 seconds or more
4: (1) forelimbs 10 seconds or more
or (2) forelimbs from 5 (inclusive)
hindlimbs 10 seconds or more
5: forelimbs 10 seconds or more
The effect of the compounds was evaluated by the total of the catalepsy scores of 5 or 10 mice in each group (25 or 50 points at the maximum). The groups wherein the total score was not more than 20 or 40 points were estimated to be effective. The number of the animals showing remission against catalepsy is the number of the mice for which the catalepsy score was not more than 4 points in 5 or 10 mice.

[3] = 5 mice (max 25 points; control 25)
[4] = out of 5 mice (score not more than 4)
[5] = out of 10 mice (score not more than 4)

T1 sequence (P30543 whole entry): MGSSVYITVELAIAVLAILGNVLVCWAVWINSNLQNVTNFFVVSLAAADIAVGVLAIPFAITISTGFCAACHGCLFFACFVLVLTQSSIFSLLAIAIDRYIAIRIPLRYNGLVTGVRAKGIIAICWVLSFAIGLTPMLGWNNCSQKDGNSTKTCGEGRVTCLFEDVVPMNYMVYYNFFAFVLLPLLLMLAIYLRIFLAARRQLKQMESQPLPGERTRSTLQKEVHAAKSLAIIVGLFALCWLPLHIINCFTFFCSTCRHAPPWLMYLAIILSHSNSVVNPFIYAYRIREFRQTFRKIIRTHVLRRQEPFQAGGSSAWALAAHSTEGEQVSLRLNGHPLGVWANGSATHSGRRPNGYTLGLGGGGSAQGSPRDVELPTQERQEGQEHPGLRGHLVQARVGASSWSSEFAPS

| SMILES | A2 Receptor Inhibition Rate (%) (A2 Receptor; 10^-6 M) | A2 Receptor Inhibition Rate (%) (A2 Receptor; 10^-7 M) | also measured |
| --- | --- | --- | --- |
| CCCn1c(=O)c2c(nc(/C=C/c3ccc(OC(C)=O)c(OC(C)=O)c3)n2C)n(CCC)c1=O [Compound 1, (E)-8-(3,4-Diacetoxystyryl)-7-methyl-1,3-dipropylxanthine] | 93% | 89% |  |
| CCCn1c(=O)c2c(nc(/C=C/c3ccc(OC)c(OC(C)=O)c3)n2C)n(CCC)c1=O [Compound 3, (E)-8-(3-Acetoxy-4-methoxystyryl)-7-methyl-1,3-dipropylxanthine] | 96% | 61% |  |
| CCCn1c(=O)c2c(nc(/C=C/c3ccc(OC(C)=O)c(OC)c3)n2C)n(CCC)c1=O [Compound 4, (E)-8-(4-Acetoxy-3-methoxystyryl)-7-methyl-1,3-dipropylxanthine] | 98% | 94% | Ratio of Attacks: Test Compd.-Treated Group/Control Group [1]: 11.0; Number of the Biting Attacks (mean ± S.E.M.), Test Compound-Treated Group [1]: 47.4 ± 11.1; Total Score (catalepsy) [2, 3]: 3; Number of Animals Showing Remission [2, 4]: 5; inhibition in vivo at 10 mg/kg ([2]; 5 mice): 88% |
| CCn1c(=O)c2c(nc(/C=C/c3ccc(OC(=O)c4ccccc4)c(OC)c3)n2C)n(CC)c1=O [Compound 7, (E)-8-(4-Benzoyloxy-3-methoxystyryl)-1,3-diethyl-7-methylxanthine] | 97% | 87% | Total Score (catalepsy) [2, 3]: 14; Number of Animals Showing Remission [2, 4]: 3; inhibition in vivo at 10 mg/kg ([2]; 5 mice): 44% |
| CCCn1c(=O)c2c(nc(/C=C/c3cc(OC(C)=O)cc(OC(C)=O)c3)n2C)n(CCC)c1=O [Compound 9, (E)-8-(3,5-Diacetoxystyryl)-7-methyl-1,3-dipropylxanthine] | 96% | 88% |  |
| CCn1c(=O)c2c(nc(/C=C/c3ccc(OC(=O)C(C)(C)C)c(OC)c3)n2C)n(CC)c1=O [Compound 13, (E)-1,3-Diethyl-8-(3-methoxy-4-pivaloyloxystyryl)-7-methylxanthine] |  |  | Ratio of Attacks: Test Compd.-Treated Group/Control Group [1]: 10.1; Number of the Biting Attacks (mean ± S.E.M.), Test Compound-Treated Group [1]: 24.3 ± 6.6; Total Score (catalepsy) ([2]; 10 mice (max 50 points)): 14; Number of Animals Showing Remission [2, 5]: 9; inhibition in vivo at 10 mg/kg ([2]; 10 mice): 72% |
| C=CCn1c(=O)c2c(nc(/C=C/c3ccc(OC(C)=O)c(OC)c3)n2C)n(CC=C)c1=O [Compound 15, (E)-8-(4-Acetoxy-3-methoxystyryl)-1,3-diallyl-7-methylxanthine] | 91% | 85% |  |
| CCn1c(=O)c2c(nc(/C=C/c3ccc(OC)c(OC(C)=O)c3)n2C)n(CC)c1=O [Compound 16, (E)-8-(3-Acetoxy-4-methoxystyryl)-1,3-diethyl-7-methylxanthine] | 96% | 81% |  |
| CCn1c(=O)c2c(nc(/C=C/c3cc(OC)c(OC(C)=O)c(OC)c3)n2C)n(CC)c1=O [Compound 17, (E)-8-(4-Acetoxy-3,5-dimethoxystyryl)-1,3-diethyl-7-methylxanthine] | 97% | 80% | Total Score (catalepsy) ([2]; 10 mice (max 50 points)): 30; Number of Animals Showing Remission [2, 5]: 7; inhibition in vivo at 10 mg/kg ([2]; 10 mice): 40% |
| CCn1c(=O)c2c(nc(/C=C/c3cc(OC)c(OC(=O)c4ccccc4)c(OC)c3)n2C)n(CC)c1=O [Compound 18, (E)-8-(4-Benzoyloxy-3,5-dimethoxystyryl)-1,3-diethyl-7-methylxanthine] | 97% | 82% | Total Score (catalepsy) ([2]; 10 mice (max 50 points)): 30; Number of Animals Showing Remission [2, 5]: 7; inhibition in vivo at 10 mg/kg ([2]; 10 mice): 40% |
| C=CCn1c(=O)c2c(nc(/C=C/c3cc(OC)c(OC(C)=O)c(OC)c3)n2C)n(CC=C)c1=O [Compound 19, (E)-8-(4-Acetoxy-3,5-dimethoxystyryl)-1,3-diallyl-7-methylxanthine] | 96% | 91% |  |
| CCn1c(=O)c2c(nc(/C=C/c3cccc(OC(C)=O)c3)n2C)n(CC)c1=O [Compound 21, (E)-8-(3-Acetoxystyryl)-1,3-diethyl-7-methylxanthine] | 96% | 81% |  |
| CCn1c(=O)c2c(nc(/C=C/c3cccc(OC(=O)c4ccccc4)c3)n2C)n(CC)c1=O [Compound 22, (E)-8-(3-Benzoyloxystyryl)-1,3-diethyl-7-methylxanthine] | 99% | 92% |  |
| CCn1c(=O)c2c(nc(/C=C/c3cc(OC)ccc3OC(C)=O)n2C)n(CC)c1=O [Compound 23, (E)-8-(2-Acetoxy-5-methoxystyryl)-1,3-diethyl-7-methylxanthine] | 101% | 90% |  |
| CCn1c(=O)c2c(nc(/C=C/c3cccc(OC)c3OC(C)=O)n2C)n(CC)c1=O [Compound 25, (E)-8-(2-Acetoxy-3-methoxystyryl)-1,3-diethyl-7-methylxanthine] | 101% | 95% |  |
| CCn1c(=O)c2c(nc(/C=C/c3cccc(OC(C)=O)c3OC(C)=O)n2C)n(CC)c1=O [Compound 26, (E)-8-(2,3-Diacetoxystyryl)-1,3-diethyl-7-methylxanthine] | 101% | 75% |  |
